Assays:
KDR = molecular target: T1, KDR (Homo sapiens, UniProt P35968); experiment: cell-free kinase assay; format: biochemical; settings: single inhibitor concentration
T1 construct: purchased Carna Biosciences
Description: (§1) We investigated the potency and selectivity of BI 10N against 56 kinases using a cell-free assay (Table 8A).
(§2) The selectivity of this inhibitor was investigated by testing the potency of the inhibitor at two concentrations with 53 kinases by Carna Biosciences (MA) (Table 2).

PBK = molecular target: T2, PBK (Homo sapiens, UniProt Q96KB5); experiment: cell-free kinase assay; format: biochemical; settings: single inhibitor concentration
T2 construct: purchased Carna Biosciences
Description: as §1, §2

CDK2/CycA2 = molecular target: T3, CDK2/CycA2 (Homo sapiens, UniProt P24941); experiment: cell-free kinase assay; format: biochemical; settings: single inhibitor concentration
T3 construct: purchased Carna Biosciences
Description: as §1, §2

DYRK1B = molecular target: T4, DYRK1B (Homo sapiens, UniProt Q9Y463); experiment: cell-free kinase assay; format: biochemical; settings: single inhibitor concentration
T4 construct: purchased Carna Biosciences
Description: as §1, §2

AKT1 = molecular target: T5, AKT1 (Homo sapiens, UniProt P31749); experiment: cell-free kinase assay; format: biochemical; settings: single inhibitor concentration
T5 construct: purchased Carna Biosciences
Description: as §1, §2

IKKβ = molecular target: T6, IKKβ (Homo sapiens, UniProt O14920); experiment: cell-free kinase assay; format: biochemical; settings: single inhibitor concentration
T6 construct: purchased Carna Biosciences
Description: as §1, §2

NEK2 = molecular target: T7, NEK2 (Homo sapiens, UniProt P51955); experiment: cell-free kinase assay; format: biochemical; settings: single inhibitor concentration
T7 construct: purchased Carna Biosciences
Description: as §1, §2

PAK2 = molecular target: T8, PAK2 (Homo sapiens, UniProt Q13177); experiment: cell-free kinase assay; format: biochemical; settings: single inhibitor concentration
T8 construct: purchased Carna Biosciences
Description: as §1, §2

PDGFRα = molecular target: T9, PDGFRα (Homo sapiens, UniProt P16234); experiment: cell-free kinase assay; format: biochemical
T9 construct: purchased Carna Biosciences
Description: as §1, §2

CK1ε = molecular target: T10, CK1ε (Homo sapiens, UniProt P49674); experiment: cell-free kinase assay; format: biochemical; settings: single inhibitor concentration
T10 construct: purchased Carna Biosciences
Description: as §1, §2

GSK3β = molecular target: T11, GSK3β (Homo sapiens, UniProt P49841); experiment: cell-free kinase assay; format: biochemical; settings: single inhibitor concentration
T11 construct: purchased Carna Biosciences
Description: as §1, §2

CSK = molecular target: T12, CSK (Homo sapiens, UniProt P41240); experiment: cell-free kinase assay; format: biochemical; settings: single inhibitor concentration
T12 construct: purchased Carna Biosciences
Description: as §1, §2

LYNa = molecular target: T13, LYNa (Homo sapiens, UniProt P07948); experiment: cell-free kinase assay; format: biochemical; settings: ATP concentration at approximately the Km for ATP
T13 construct: purchased Carna Biosciences
Description: as §1, §2

TYRO3 = molecular target: T14, TYRO3 (Homo sapiens, UniProt Q06418); experiment: cell-free kinase assay; format: biochemical; settings: single inhibitor concentration
T14 construct: purchased Carna Biosciences
Description: as §1, §2

MET = molecular target: T15, MET (Homo sapiens, UniProt P08581); experiment: cell-free kinase assay; format: biochemical; settings: single inhibitor concentration
T15 construct: purchased Carna Biosciences
Description: as §1, §2

PYK2 = molecular target: T16, PYK2 (Homo sapiens, UniProt Q14289); experiment: cell-free kinase assay; format: biochemical; settings: single inhibitor concentration
T16 construct: purchased Carna Biosciences
Description: as §1, §2

[1] = system: RPMI 8322 (ITKHI) melanoma cell line; experiment: proliferation assay (cell counts); format: cell-based, Human; settings: 50 nM
Description: (§3) FIG. 4A-4E. Effects of ITK knockdown on proliferation and motility of melanoma cells. FIG. 4A) Western of lysates of VMM 39 containing each of the four shRNA constructs using rabbit monoclonal anti ITK (Y401). FIG. 4B) The four shRNA lentiviral constructs were used to transduce three melanoma cell lines, PMWK (ITKLO), VMM 39 (ITKHI), and RPMI 8322 (ITKHI). 50,000 cells were placed into each well of a 6 well plate, which was then counted 3, 5, and 6, or 7 days after plating to assess the proliferation rates of the different cell lines. FIG. 4C) Single Cell Motility assays were performed on three different melanoma cell lines, PMWK, VMM 39, and RPMI 8322. Each melanoma cell line was transduced with the four shRNA lentiviral constructs producing a total of 12 cell lines. 10,000 cells were plated on fibronectin coated glass bottom dishes. Pictures were taken once every 40 minutes for 16 hours. FIG. 4D) Cell cycle analysis of PMWK, VMM 39, and RPMI 8322 cells that have been transduced with various shRNAs. Cells were harvested after 3 hours of incubation with 5-ethynyl-2′-deoxyuridine (EdU). EdU incorporation and DNA content with FxCycle Violet were analyzed using flow cytometry. Illustrated in this panel are the percentages of cells in G0/G1 (low DNA and EdU content), S (high EdU and low-to-medium DNA content), and G2/M (Low EdU and high DNA content). FIG. 4E) Single-cell motility analysis of PMWK, VMM 39, and RPMI 8322 that have been transduced with various shRNAs. At least 50 cells were tracked for each cell line and the average motility rate was determined. […]
(§4) FIG. 5A-5C. […] Cells were trypsinized and counted using the Invitrogen Countess. […] The cells were counted with the Invitrogen Countess at 3, 5, and 6 or 7 days after plating to assess the proliferation rates of the different cell lines in the presence of BI 10N. […] Following 3 days of BI 10N treatment, the cells were incubated with EdU for 3 hours and were subsequently assessed for 5-ethynyl-2′-deoxyuridine (EdU) incorporation rate and DNA content with FxCycle Violet. […]

[2] = system: PMWK (ITKLO) melanoma cell line; experiment: proliferation assay (cell counts); format: cell-based, Human; settings: inhibitor as high as 150 nM
Description: as §3, §4

[3] = system: VMM 39 (ITKHI) melanoma cell line; experiment: proliferation assay (cell counts); format: cell-based, Human; settings: 50 nM
Description: as §3, §4

T9 sequence (P16234 24-1089): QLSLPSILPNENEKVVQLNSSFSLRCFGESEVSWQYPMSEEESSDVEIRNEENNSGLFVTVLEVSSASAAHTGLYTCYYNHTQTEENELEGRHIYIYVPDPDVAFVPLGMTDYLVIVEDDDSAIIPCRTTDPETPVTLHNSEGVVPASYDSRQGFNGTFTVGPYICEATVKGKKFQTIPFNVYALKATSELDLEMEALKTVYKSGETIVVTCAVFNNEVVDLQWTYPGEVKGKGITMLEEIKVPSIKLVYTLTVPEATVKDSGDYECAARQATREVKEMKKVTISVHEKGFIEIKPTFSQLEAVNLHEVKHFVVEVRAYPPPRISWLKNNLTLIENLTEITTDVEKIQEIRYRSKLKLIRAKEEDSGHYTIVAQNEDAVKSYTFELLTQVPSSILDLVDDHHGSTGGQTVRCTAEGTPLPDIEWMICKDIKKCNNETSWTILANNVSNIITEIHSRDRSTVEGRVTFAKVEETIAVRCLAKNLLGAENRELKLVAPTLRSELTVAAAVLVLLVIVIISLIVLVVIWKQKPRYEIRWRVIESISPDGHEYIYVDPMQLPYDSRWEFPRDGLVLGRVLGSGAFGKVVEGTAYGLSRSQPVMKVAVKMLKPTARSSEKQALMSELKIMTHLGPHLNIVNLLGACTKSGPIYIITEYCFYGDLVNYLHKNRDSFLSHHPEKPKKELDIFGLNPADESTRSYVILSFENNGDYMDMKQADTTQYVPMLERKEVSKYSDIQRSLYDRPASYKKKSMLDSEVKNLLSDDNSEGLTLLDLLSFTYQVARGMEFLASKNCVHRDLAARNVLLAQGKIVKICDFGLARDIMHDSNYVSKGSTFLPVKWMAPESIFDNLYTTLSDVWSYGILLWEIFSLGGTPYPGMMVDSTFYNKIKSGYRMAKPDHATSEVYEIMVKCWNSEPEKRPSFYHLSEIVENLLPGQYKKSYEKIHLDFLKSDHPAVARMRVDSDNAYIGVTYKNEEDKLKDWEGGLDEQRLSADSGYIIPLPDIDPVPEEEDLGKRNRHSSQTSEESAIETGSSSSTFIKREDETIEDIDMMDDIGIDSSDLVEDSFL
T8 sequence (Q13177 whole entry): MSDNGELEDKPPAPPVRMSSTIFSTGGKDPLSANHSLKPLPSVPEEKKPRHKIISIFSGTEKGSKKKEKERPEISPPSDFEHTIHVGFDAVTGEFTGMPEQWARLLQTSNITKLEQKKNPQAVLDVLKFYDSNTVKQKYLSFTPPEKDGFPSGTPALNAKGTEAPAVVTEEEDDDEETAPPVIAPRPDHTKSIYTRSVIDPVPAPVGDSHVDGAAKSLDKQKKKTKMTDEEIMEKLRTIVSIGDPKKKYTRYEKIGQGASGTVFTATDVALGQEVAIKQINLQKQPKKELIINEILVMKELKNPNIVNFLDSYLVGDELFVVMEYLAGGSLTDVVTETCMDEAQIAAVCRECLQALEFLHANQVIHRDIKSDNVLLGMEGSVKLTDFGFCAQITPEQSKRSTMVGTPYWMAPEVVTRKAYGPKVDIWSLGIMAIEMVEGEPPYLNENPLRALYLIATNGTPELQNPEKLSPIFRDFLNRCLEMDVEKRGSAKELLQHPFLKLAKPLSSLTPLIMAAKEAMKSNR
T4 sequence (Q9Y463 whole entry): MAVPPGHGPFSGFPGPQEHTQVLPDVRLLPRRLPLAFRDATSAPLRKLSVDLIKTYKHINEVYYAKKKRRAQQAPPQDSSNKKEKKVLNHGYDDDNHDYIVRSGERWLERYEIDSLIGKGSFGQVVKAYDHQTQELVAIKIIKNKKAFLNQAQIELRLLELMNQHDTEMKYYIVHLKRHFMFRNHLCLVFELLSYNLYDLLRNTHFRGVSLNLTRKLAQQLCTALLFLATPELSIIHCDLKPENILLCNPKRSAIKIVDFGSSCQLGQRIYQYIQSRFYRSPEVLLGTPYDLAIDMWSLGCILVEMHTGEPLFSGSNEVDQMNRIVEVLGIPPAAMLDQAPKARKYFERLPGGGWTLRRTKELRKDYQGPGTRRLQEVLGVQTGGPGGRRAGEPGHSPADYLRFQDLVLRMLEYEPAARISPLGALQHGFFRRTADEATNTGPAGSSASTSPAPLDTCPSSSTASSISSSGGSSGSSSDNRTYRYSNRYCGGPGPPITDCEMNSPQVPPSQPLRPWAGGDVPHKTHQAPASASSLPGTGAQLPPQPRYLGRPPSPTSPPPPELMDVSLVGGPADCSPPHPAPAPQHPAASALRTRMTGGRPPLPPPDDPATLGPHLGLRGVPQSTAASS
T6 sequence (O14920 whole entry): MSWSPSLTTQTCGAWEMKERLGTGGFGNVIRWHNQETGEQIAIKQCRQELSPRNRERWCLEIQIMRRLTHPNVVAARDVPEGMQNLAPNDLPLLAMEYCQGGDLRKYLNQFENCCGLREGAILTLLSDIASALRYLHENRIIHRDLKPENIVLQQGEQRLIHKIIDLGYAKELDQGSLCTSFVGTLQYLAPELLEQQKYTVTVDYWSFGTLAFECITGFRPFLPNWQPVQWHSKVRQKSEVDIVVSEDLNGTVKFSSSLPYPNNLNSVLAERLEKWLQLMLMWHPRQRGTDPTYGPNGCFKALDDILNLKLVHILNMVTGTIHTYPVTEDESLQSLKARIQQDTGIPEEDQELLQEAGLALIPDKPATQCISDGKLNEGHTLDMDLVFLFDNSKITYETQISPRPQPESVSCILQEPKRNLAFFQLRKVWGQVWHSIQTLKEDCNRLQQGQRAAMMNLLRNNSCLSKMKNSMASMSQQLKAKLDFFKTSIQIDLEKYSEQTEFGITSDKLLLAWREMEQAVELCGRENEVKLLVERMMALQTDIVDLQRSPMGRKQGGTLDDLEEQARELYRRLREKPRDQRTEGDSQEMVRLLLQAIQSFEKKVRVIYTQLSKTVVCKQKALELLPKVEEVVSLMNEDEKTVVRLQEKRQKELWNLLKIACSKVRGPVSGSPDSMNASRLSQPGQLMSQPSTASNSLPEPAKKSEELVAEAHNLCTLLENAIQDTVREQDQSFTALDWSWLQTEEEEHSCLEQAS
T5 sequence (P31749 whole entry): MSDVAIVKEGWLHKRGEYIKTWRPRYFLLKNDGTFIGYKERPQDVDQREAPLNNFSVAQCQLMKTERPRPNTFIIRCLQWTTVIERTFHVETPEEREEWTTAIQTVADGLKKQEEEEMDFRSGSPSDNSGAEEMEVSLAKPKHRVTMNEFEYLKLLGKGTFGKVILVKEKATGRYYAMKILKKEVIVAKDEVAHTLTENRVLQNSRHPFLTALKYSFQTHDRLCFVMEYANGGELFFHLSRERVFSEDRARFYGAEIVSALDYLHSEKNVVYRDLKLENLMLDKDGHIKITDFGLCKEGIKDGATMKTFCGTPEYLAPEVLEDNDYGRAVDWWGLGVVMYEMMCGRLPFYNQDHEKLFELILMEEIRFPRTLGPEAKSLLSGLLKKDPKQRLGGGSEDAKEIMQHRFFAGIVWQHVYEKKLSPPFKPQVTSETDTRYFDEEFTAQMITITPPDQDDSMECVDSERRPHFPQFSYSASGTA
T15 sequence (P08581 25-1390): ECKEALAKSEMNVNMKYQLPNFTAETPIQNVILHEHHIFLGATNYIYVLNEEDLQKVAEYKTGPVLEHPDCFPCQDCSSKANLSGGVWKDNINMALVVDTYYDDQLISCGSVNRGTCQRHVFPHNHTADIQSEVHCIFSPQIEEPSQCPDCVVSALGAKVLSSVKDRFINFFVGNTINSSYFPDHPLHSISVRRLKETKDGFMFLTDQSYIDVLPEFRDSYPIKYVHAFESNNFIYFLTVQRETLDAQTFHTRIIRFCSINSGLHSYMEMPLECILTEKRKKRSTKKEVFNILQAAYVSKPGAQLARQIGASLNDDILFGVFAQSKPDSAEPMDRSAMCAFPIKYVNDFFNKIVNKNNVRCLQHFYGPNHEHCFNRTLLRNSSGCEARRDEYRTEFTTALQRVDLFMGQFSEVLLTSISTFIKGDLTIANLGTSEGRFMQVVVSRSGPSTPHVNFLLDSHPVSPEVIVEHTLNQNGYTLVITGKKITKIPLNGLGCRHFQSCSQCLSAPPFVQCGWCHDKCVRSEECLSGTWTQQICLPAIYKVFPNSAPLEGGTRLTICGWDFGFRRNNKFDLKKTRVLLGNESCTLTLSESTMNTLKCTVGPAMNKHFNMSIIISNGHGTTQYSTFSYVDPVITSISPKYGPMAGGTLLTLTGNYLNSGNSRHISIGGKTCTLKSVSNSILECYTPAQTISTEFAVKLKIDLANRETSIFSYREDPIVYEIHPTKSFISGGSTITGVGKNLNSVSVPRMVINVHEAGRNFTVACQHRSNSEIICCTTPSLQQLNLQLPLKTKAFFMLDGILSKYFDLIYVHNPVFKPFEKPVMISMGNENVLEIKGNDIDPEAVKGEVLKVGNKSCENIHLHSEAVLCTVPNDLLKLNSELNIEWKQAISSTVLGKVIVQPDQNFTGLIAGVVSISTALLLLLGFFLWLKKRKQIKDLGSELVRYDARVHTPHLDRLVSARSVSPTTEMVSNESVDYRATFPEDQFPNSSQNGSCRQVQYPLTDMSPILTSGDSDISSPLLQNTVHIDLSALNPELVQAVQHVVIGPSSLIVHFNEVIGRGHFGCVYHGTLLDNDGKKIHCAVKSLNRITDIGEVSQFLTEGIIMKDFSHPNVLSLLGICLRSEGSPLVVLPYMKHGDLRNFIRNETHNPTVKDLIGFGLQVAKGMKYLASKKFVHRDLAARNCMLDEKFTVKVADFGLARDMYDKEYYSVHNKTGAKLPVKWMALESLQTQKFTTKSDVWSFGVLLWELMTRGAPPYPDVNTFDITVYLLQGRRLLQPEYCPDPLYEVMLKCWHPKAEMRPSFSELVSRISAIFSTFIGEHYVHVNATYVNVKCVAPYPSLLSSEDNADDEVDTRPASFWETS

inhibition at 0.2 µM (KDR): 79.3% | inhibition at 0.2 µM (PBK): 1.7% | inhibition at 0.2 µM (CDK2/CycA2): 72.3% | inhibition at 0.2 µM (DYRK1B): 79.6% | inhibition at 0.2 µM (AKT1): -2.2% | inhibition at 0.2 µM (IKKβ): -2.4% | inhibition at 0.2 µM (NEK2): 0.3% | inhibition at 0.2 µM (PAK2): 4.5% | IC50 (PDGFRα; Table 2, by Carna Biosciences): 10.1 nM | inhibition at 0.2 µM (PDGFRα; single inhibitor concentration): 101% | inhibition at 0.2 µM (CK1ε): 76.2% | inhibition at 0.2 µM (GSK3β): 31.5% | inhibition at 0.2 µM (CSK): 32.4% | IC50 (LYNa): 36.6 nM | inhibition at 0.2 µM (TYRO3): 35.6% | inhibition at 0.2 µM (MET): 4.1% | inhibition at 0.2 µM (PYK2): 35.1%
Structure (SMILES): CC(C)C(C)CNCc1ccc2c(c1)[nH]/c(=N\C(=O)c1ccc(C3=CN=NC3)s1)n2CC(C)(C)O (centres unmarked) [BI 10N]
increase in doubling time [1]: about 50% | effect on doubling time [2]: did not increase their doubling time | increase in doubling time [3]: about 50%

Source: patent publication US9649313B2, “Use of ITK inhibitors for the treatment of cancer” (The University of North Carolina at Chapel Hill, priority 2012, dated 2017)
